Experimental data: US10688093B2, “Methods, compositions, and uses of novel Fyn kinase inhibitors” (priority 2015, dated 2020)

Each compound was assayed against full-length recombinant human FYN A (Homo sapiens (Human), UniProt P06241) (assay: ADP-Glo Kinase Assay of FYN kinase inhibition). Conditions: primary screen, initial compounds.
Assay type: biochemical
How it was run: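 GST-tagged full-length FYN A (baculovirus, Sf9) at 3 pg preincubated 30 min RT with compound (10-point 3-fold series from 10 μM) in Tris pH 7.5/MgCl2 buffer. 12-mer tyrosine peptide plus 12.5 pmol ATP added, 90 min RT; ADP measured by ADP-Glo luminescence, IC50 from dose-response.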

full-length recombinant human FYN A, sequence (P06241 whole entry): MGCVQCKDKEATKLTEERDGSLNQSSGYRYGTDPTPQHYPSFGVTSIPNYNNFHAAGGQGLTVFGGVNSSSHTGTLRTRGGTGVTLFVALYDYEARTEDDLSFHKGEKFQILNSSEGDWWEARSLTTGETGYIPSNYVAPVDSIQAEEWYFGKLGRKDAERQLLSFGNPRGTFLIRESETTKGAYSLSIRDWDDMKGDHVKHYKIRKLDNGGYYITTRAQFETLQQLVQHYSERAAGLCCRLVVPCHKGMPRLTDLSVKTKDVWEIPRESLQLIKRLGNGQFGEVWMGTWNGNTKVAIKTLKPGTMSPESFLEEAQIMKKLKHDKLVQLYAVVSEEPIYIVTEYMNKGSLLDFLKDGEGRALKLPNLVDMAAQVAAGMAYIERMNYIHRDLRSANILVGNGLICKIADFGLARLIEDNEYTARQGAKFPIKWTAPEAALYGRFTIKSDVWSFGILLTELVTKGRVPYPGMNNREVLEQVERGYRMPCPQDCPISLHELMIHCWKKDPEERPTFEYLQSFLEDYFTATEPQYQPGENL

Structure (SMILES) | IC50 [µM]
Oc1cccc(-c2ccc3ncc(-c4ccc5c(c4)OCO5)n3n2)c1 [Compound 351, 3-[3-(1,3-benzodioxol-5-yl)imidazo[1,2-b]pyridazin-6-yl]phenol] | 0.915
c1ccc(-c2ccc3ncc(-c4cccnc4)n3n2)cc1 [Compound 352, 6-phenyl-3-(3-pyridyl)imidazo [1,2-b]pyridazine] | 1.94
c1cncc(-c2cnc3ccc(-c4cccs4)nn23)c1 [Compound 353, 3-(3-pyridyl)-6-(2-thienyl) imidazo[1,2-b] pyridazine] | 0.346
CC(=O)Nc1cccc(-c2cnc3ccc(-c4cccc(C(C)=O)c4)nn23)c1 [Compound 354, N-[3-[6-(3-acetylphenyl)imidazo[1,2-b]pyridazin-3-yl]phenyl] acetamide] | 0.466
COc1cc(-c2cnc3ccc(-c4ccc(OC)c(OC)c4)nn23)ccc1O [Compound 356, 4-[6-(3,4-dimethoxyphenyl)imidazo[1,2-b]pyridazin-3-yl]-2-methoxy-phenol] | 0.0445
COc1ccccc1-c1ccc2ncc(-c3cccc(C(C)=O)c3)n2n1 [Compound 357, 1-[3-[6-(2-methoxyphenyl)imidazo[1,2-b]pyridazin-3-yl]phenyl] ethanone] | 2.33
CC(=O)c1cccc(-c2cnc3ccc(-c4cnn(C)c4)nn23)c1 [Compound 358, 1-[3-[6-(1-methylpyrazol-4-yl)imidazo[1,2-3]pyridazin-3-yl]phenyl] ethanone] | 0.373
CS(=O)(=O)Nc1cccc(-c2ccc3ncc(-c4cccs4)n3n2)c1 [Compound 359, N-[3-[3-(2-thienyl)imidazo [1,2-b]pyridazin-6-yl]phenyl] methane-sulfonamide] | 1.21
c1cncc(-c2ccc3ncc(-c4ccc5c(c4)OCO5)n3n2)c1 [Compound 360, 3-(1,3-benzodioxol-5-yl)-6-(3-pyridyl)imidazo [1,2-b]pyridazine] | 0.688
COc1cccc(-c2ccc3ncc(-c4ccc(O)c(OC)c4)n3n2)c1 [Compound 366, 2-methoxy-4-[6-(3-methoxyphenyl)imidazo[1,2-b]pyridazin-3-yl]phenol] | 0.221
CC(=O)c1cccc(-c2cnc3ccc(-c4ccoc4)nn23)c1 [Compound 367, 1-[3-[6-(3-furyl)imidazo [1,2-b]pyridazin-3-yl]phenyl] ethanone] | 3.44
NC(=O)c1ccc(-c2ccc3ncc(-c4cccs4)n3n2)cc1 [Compound 368, 4-[3-(2-thienyl)imidazo [1,2-b]pyridazin-6-yl]benzamide] | 0.951
O=C(NCCO)c1cccc(-c2ccc3ncc(-c4ccc5c(c4)OCO5)n3n2)c1 [Compound 369, 3-[3-(1,3-benzodioxol-5-yl)imidazo[1,2-b]pyridazin-6-yl]-N-(2-hydroxyethyl) benzamide] | 0.367
CC(=O)Nc1cccc(-c2cnc3ccc(-c4cccs4)nn23)c1 [Compound 371, N-[3-[6-(2-thienyl)imidazo [1,2-b]pyridazin-3-yl]phenyl] acetamide] | 0.21
CC(=O)c1cccc(-c2cnc3ccc(-c4cccc(N(C)C)c4)nn23)c1 [Compound 376, 1-[3-[6-[3-(dimethylamino)phenyl]imidazo [1,2-b]pyridazin-3-yl]phenyl] ethanone] | 0.886
COc1ccc(-c2cnc3ccc(-c4cccc(NS(C)(=O)=O)c4)nn23)cc1OC [Compound 379, N-[3-[3-(3,4-dimethoxyphenyl)imidazo[1,2-b]pyridazin-6-yl]phenyl] methane-sulfonamide] | 0.703
CC(=O)c1cccc(-c2cnc3ccc(-c4cccc(C(N)=O)c4)nn23)c1 [Compound 380, 3-[3-(3-acetylphenyl)imidazo[1,2-b]pyridazin-6-yl]benzamide] | 0.519
CS(=O)(=O)Nc1cccc(-c2ccc3ncc(-c4cccnc4)n3n2)c1 [Compound 381, N-[3-[3-(3-pyridyl)imidazo [1,2-b]pyridazin-6-yl]phenyl] methane-sulfonamide] | 1.41
Oc1cccc(-c2cnc3ccc(-c4ccncc4)nn23)c1 [Compound 382, 3-[6-(4-pyridyl)imidazo [1,2-b]pyridazin-3-yl]phenol] | 0.203
Oc1cccc(-c2cnc3ccc(-c4cccc5ncccc45)nn23)c1 [Compound 383, 3-[6-(5-quinolyl)imidazo [1,2-b]pyridazin-3-yl]phenol] | 14.6
COc1cc(-c2cnc3ccc(-c4ccccc4OC)nn23)ccc1O [Compound 385, 2-methoxy-4-[6-(2-methoxy-phenyl)imidazo[1,2-b]pyridazin-3-yl]phenol] | 0.959
CNC(=O)c1cccc(-c2ccc3ncc(-c4cccc(C(C)=O)c4)n3n2)c1 [Compound 386, 3-[3-(3-acetylphenyl)imidazo[1,2-b]pyridazin-6-yl]-N-methyl-benzamide] | 1.72
Cn1cc(-c2ccc3ncc(-c4cccs4)n3n2)cn1 [Compound 388, 6-(1-methylpyrazol-4-yl)-3-(2-thienyl)imidazo [1,2-b]pyridazine] | 1.31
COc1ccc(-c2cnc3ccc(-c4cccc(C(=O)NCCO)c4)nn23)cc1OC [Compound 389, 3-[3-(3,4-dimethoxyphenyl)imidazo[1,2-a]pyridazin-6-yl]-N-(2-hydroxyethyl) benzamide] | 0.367
Cn1cc(-c2ccc3ncc(-c4ccc5c(c4)OCO5)n3n2)cn1 [Compound 390, 3-(1,3-benzodioxol-5-yl)-6-(1-methylpyrazol-4-yl)imidazo[1,2-b]pyridazine] | 0.956
COc1ccc(-c2cnc3ccc(-c4cnn(C)c4)nn23)cc1OC [Compound 391, 3-(3,4-dimethoxy-phenyl)-6-(1-methylpyrazol-4-yl)imidazo[1,2-b]pyridazine] | 0.367
COc1ccccc1-c1ccc2ncc(-c3cccnc3)n2n1 [Compound 394, 6-(2-methoxy-phenyl)-3-(3-pyridyl)imidazo [1,2-b]pyridazine] | 2.35
COc1ccc(-c2cnc3ccc(-c4ccncc4)nn23)cc1OC [Compound 395, 3-(3,4-dimethoxy-phenyl)-6-(4-pyridyl)imidazo [1,2-b]pyridazine] | 0.404
Oc1cccc(-c2cnc3ccc(-c4cccnc4)nn23)c1 [Compound 396, 3-[6-(3-pyridyl)imidazo [1,2-b]pyridazin-3-yl]phenol] | 0.586
Cn1cc(-c2ccc3ncc(-c4cccc(O)c4)n3n2)cn1 [Compound 397, 3-[6-(1-methylpyrazol-4-yl)imidazo[1,2-b]pyridazin-3-yl]phenol] | 0.388

More lines, now with the values ahead:

IC50 [µM] | Structure (SMILES)
0.954 | OCc1cccc(-c2cnc3ccc(-c4cccc(O)c4)nn23)c1 [Compound 349, 3-[3-[3-(hydroxymethyl)phenyl]imidazo [1,2-b]pyridazin-6-yl]phenol]
2.14 | NC(=O)c1ccc(-c2ccc3ncc(-c4ccccc4)n3n2)cc1 [Compound 350, 4-(3-phenylimidazo [1,2-b]pyridazin-6-yl)benzamide]
1.24 | COc1cccc(-c2ccc3ncc(-c4cccc(O)c4)n3n2)c1 [Compound 355, 3-[6-(3-methoxyphenyl)imidazo[1,2-b]pyridazin-3-yl]phenol]
2.91 | OCc1ccc(-c2ccc3ncc(-c4cccnc4)n3n2)cc1 [Compound 361, [4-[3-(3-pyridyl)imidazo [1,2-b]pyridazin-6-yl]phenyl] methanol]
0.285 | OCc1ccc(-c2ccc3ncc(-c4cccc(O)c4)n3n2)cc1 [Compound 363, 3-[6-[4-(hydroxymethyl)phenyl]imidazo [1,2-b]pyridazin-3-yl]phenol]
3.9 | COc1ccccc1-c1ccc2ncc(-c3ccc(CO)cc3)n2n1 [Compound 364]
1.56 | COc1cccc(-c2ccc3ncc(-c4ccc(CO)cc4)n3n2)c1 [Compound 365, [4-[6-(3-methoxyphenyl)imidazo[1,2-b]pyridazin-3-yl]phenyl] methanol]
0.332 | OCc1cccc(-c2ccc3ncc(-c4ccc5c(c4)OCO5)n3n2)c1 [Compound 370, [3-[3-(1,3-benzodioxol-5-yl)imidazo[1,2-b]pyridazin-6-yl]phenyl] methanol]
0.894 | Oc1cccc(-c2cnc3ccc(-c4ccccc4)nn23)c1 [Compound 372, 3-(6-phenylimidazo [1,2-b]pyridazin-3-yl)phenol]
1.6 | CC(=O)c1cccc(-c2ccc3ncc(-c4cccc(O)c4)n3n2)c1 [Compound 373, 1-[3-[3-(3-hydroxyphenyl)imidazo[1,2-b]pyridazin-6-yl]phenyl] ethanone]
2.96 | OCc1ccc(-c2cnc3ccc(-c4cccc(F)c4)nn23)cc1 [Compound 374, [4-[6-(3-fluorophenyl)imidazo[1,2-b]pyridazin-3-yl]phenyl] methanol]
2.17 | CC(=O)c1cccc(-c2ccc3ncc(-c4cccc(CO)c4)n3n2)c1 [Compound 375, 1-[3-[3-[3-(hydroxymethyl)phenyl]imidazo [1,2-b]pyridazin-6-yl]phenyl] ethanone]
0.283 | CC(=O)c1cccc(-c2cnc3ccc(-c4ccc(N)nc4)nn23)c1 [Compound 377, 1-[3-[6-(6-amino-3-pyridyl)imidazo[1,2-b]pyridazin-3-yl]phenyl] ethanone]
2.36 | OCc1ccc(-c2ccc3ncc(-c4cccs4)n3n2)cc1 [Compound 378, [4-[3-(2-thienyl)imidazo [1,2-b]pyridazin-6-yl]phenyl] methanol]
1.15 | CS(=O)(=O)Nc1cccc(-c2ccc3ncc(-c4cccc(CO)c4)n3n2)c1 [Compound 384]
1.68 | OCc1cccc(-c2ccc3ncc(-c4cccs4)n3n2)c1 [Compound 387, [3-[3-(2-thienyl)imidazo [1,2-b]pyridazin-6-yl]phenyl] methanol]
2.26 | Oc1cccc(-c2cnc3ccc(-c4cccc(F)c4)nn23)c1 [Compound 392, 3-[6-(3-fluorophenyl)imidazo[1,2-b]pyridazin-3-yl]phenol]
1.12 | CC(=O)c1cccc(-c2cnc3ccc(-c4cccc(N)c4)nn23)c1 [Compound 393, 1-[3-[6-(3-aminophenyl)imidazo[1,2-b]pyridazin-3-yl]phenyl] ethanone]
